Experimental data taken from patent US20190160049A1, “2-OXO-1,2-DIHYDROPYRIDINE-3-CARBOXAMIDE COMPOUNDS AND THEIR USE AS DUAL INHIBITORS OF PDK1/AURA” (INTERNATIONAL SOCIETY FOR DRUG DEVELOPMENT S.R.L., priority 2016, published 2019).

How the values were obtained:
[1] = tested on: cancer stem cell (CSC) neurospheres obtained from U87MG cells; assay: CSC (GBM stem cell) proliferation, MTS assay; format: cell-based
Description: FIG. 3 illustrates the effects of SA16 on CSC proliferation of example 3b. CSCs were treated in complete neurosphere medium with different concentrations of SA16 (1 nM-100 μM) for seven days. At the end of treatment, cell proliferation was measured using the MTS assay. The data are expressed as a percentage with respect to that of untreated cells (control), which was set to 100%, and are the mean values±SEM of three independent experiments, each performed in duplicate. IC50 value after seven days of treatment were calculated from sigmoid dose-response curve;
FIG. 4 illustrates combined inhibition of PDK1 and Aurora A on CSCs proliferation of example 3b. CSCs were treated in complete medium with different concentrations of MP7, in the presence or absence of Alisertib, for seven days. At the end of treatment, cell proliferation was measured using the MTS assay.
The data are expressed as a percentage with respect to that of untreated cells (control), which was set to 100%, and are the mean values±SEM of three independent experiments, each performed in duplicate. The significance of the differences was determined with a one-way ANOVA with Bonferroni post-test: * p<0.05, *** p<0.001 vs. control cells; ## p<0.01, ### p<0.001 vs. cells treated with MP7 alone; §§ p<0.01, § § § p<0.001 vs. cells treated with Alisertib alone;
The inventors also examined the effects of SA16 compound on cancer stem cell (CSC) neurospheres obtained from U87MG cells.

CSC neurospheres = assay: Sphere-derived cell morphology (neurosphere area, outgrowth of cellular processes); format: cell-based; conditions: seven days; SA16 10 nM, 1 μM, 10 μM; 2.5 PIM MP7, 1.5 μM Alisertib
Description: FIG. 5 illustrates the effects of SA16 on sphere-derived cell morphology of Example 3c. CSCs were treated for seven days with complete NSC medium containing DMSO (control), or SA16 (10 nM, 1 μM, 10 μM) (A) Representative cell micrographs of control and SA16 (10 μM) after seven days of treatment are shown. The area of the culture plates occupied by the spheres (B) and the length of cellular processes (C) were scored after seven days of treatment. The counts represent the mean values±SEM of two independent experiments. The significance of differences was determined with a one-way ANOVA with Bonferroni post-test: * p<0.05, ** p<0.01, *** p<0.001 vs. control cells.
FIG. 7 illustrates the effects of MP7, Alisertib and of their combined treatment on sphere-derived cell morphology of example 3c. CSCs were treated for seven days with complete NSC medium containing DMSO (control), MP7 and/or alisertib (A) Representative cell micrographs after seven days of treatment are shown. The area of the culture plates occupied by the spheres (B) and the length of cellular processes (C) were scored after seven days of treatment. The counts represent the mean values±SEM of two independent experiments. The significance of differences was determined with a one-way ANOVA with Bonferroni post-test: * p<0.05, *** p<0.001 vs. control cells; ## p<0.01 vs. cells treated with MP7 alone; § p<0.05 vs. cells treated with Alisertib alone.
The effects of SA16 on morphology of neurospheres were evaluated by quantifying the area occupied by the cells in culture plates, as well as the outgrowth of cellular processes.
The inventors then evaluated the effects of MP7, Alisertib and of their combination on CSC differentiation. The cells were incubated with […] MP7, alone or in combination with 1.5 μM Alisertib for seven days.

U87MG cells = assay: U87MG cell proliferation, MTS assay; format: cell-based; conditions: 72 h
Description: FIG. 1 illustrates the effects of SA16 on U87MG cell proliferation of example 3 (a). U87MG cells were treated in complete medium with different concentrations of SA16 (1 nM-100 μM) for 72 h. At the end of treatment, cell proliferation was measured using the MTS assay. The data are expressed as a percentage with respect to that of untreated cells (control), which was set to 100%, and are the mean values±SEM of three independent experiments, each performed in duplicate. The significance of the differences was determined with a one-way ANOVA with Bonferroni post-test: * p<0.05, ** p<0.01, *** p<0.001 vs. control cells;
FIG. 2 illustrates the combined inhibition of PDK1 and Aurora A on U87MG cell proliferation of example 3a. U87MG cells were treated in complete medium with different concentrations of MP7, in the presence or absence of Alisertib, for 72 h. At the end of treatment, cell proliferation was measured using the MTS assay. The data are expressed as a percentage with respect to that of untreated cells (control), which was set to 100%, and are the mean values±SEM of three independent experiments, each performed in duplicate. The significance of the differences was determined with a one-way ANOVA with Bonferroni post-test: * p<0.05, *** p<0.001 vs. control cells; ## p<0.01, ### p<0.001 vs. cells treated with MP7 alone; §§ p<0.01, § § § p<0.001 vs. cells treated with Alisertib alone;
To examine the effects of SA16 on U87MG cell growth/survival, U87MG cells were incubated with different concentrations of the compound SA16 (1 nM-10 μM) for 72 h.
In parallel experiments, U87MG proliferation was assessed in the presence of a well-known PDK1 inhibitor MP7, alone or in combination with the Aurora A inhibitor, Alisertib.

AurA = target: T1, AurA (Homo sapiens, UniProt O14965); assay: FRET-based Z'-LYTE kinase assay against AurA; format: biochemical; conditions: for IC50 / inhibition at 10 µM: Z'-LYTE assay; for inhibition at 10 µM: 10μM compound
T1 construct: purchased Invitrogen Corporation, Life Technologies
T1 sequence (O14965 1-403): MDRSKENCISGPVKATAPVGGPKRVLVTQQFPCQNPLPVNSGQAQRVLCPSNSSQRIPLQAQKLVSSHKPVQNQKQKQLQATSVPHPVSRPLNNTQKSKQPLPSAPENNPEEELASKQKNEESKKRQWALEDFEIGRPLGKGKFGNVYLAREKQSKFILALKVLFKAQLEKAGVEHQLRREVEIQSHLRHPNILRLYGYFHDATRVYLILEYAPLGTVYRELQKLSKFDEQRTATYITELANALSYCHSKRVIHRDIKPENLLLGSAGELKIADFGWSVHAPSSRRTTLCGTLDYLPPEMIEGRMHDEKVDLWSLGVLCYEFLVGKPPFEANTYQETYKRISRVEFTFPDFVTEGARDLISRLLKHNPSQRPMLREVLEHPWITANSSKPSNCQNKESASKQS
Description: (§1) The compounds of Formula (I) were tested in the biological test named Kinase-specific Z′-LYTE® assay (Invitrogen Corporation, Life Technologies).

PDK1 = target: T2, PDK1 (Homo sapiens, UniProt O15530); assay: FRET-based Z'-LYTE kinase assay against PDK1; format: biochemical
T2 construct: purchased Invitrogen Corporation, Life Technologies
T2 sequence (O15530 1-556): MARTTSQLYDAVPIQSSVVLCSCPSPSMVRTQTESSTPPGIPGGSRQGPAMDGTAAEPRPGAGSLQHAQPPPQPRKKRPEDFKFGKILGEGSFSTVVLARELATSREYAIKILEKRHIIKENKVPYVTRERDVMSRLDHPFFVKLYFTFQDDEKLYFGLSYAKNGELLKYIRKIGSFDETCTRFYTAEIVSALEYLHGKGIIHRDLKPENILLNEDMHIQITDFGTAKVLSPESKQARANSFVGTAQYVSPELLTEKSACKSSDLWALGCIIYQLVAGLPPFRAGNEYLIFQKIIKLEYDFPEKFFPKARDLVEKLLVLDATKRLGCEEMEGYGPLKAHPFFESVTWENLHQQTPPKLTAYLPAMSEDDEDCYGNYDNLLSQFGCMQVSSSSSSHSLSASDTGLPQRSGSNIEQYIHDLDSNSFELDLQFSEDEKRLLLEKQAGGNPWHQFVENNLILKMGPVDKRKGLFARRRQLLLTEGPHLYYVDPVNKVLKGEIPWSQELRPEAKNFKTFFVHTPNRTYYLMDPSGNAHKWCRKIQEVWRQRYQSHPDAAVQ
Description: as §1

Structure (SMILES) | IC50 (AurA) [µM] | IC50 (PDK1; Z'-LYTE assay) [µM] | also measured
O=C(N[C@@H](COc1ccc2[nH]c(=O)[nH]c2c1)c1ccccc1)c1cccn(Cc2ccc(F)c(F)c2)c1=O [MP7, 1-(3,4-difluorobenzyl)-2-oxo-N-{(1R)-2-[(2-oxo-2,3-dihydro-1H-benzimidazol-5-yl)oxy]-1-phenylethyl}-1,2-dihydropyridine-3-carboxamide] |  |  | effect on CSC proliferation (in words) ([1]; seven days): slight effects on U87MG proliferation; area occupied by the neurospheres (CSC neurospheres): reduction in the area occupied by the neurospheres; effect on U87MG cell proliferation (in words) (U87MG cells): did not show a significant inhibition of cell proliferation
O=C1Nc2ccc(NC(=O)[C@H](NC(=O)c3cccn(Cc4ccc(F)c(F)c4)c3=O)c3ccccc3)cc2/C1=C/c1cnc[nH]1 [SA16, (Z)—(R)—N-(2-((3-((1H-imidazol-5-yl)methylene)-2-oxoindolin-5-yl)amino)-2-oxo-1-phenylethyl)-1-(3,4-difluorobenzyl)-2-oxo-1,2-dihydropyridine-3-carboxamide] | 0.035 |  | IC50 ([1]; Homo sapiens, U-87 MG, 168 h, seven days of treatment, read-out: IC50 of inhibition of GSC proliferation): 0.00833 ± 0.00078 µM; maximal percentage of inhibition of GSC proliferation ([1]; seven days of treatment): 80.0±2.0%; maximal percentage of inhibition of U87MG cell proliferation (U87MG cells; 1 nM-10 μM): 49.4±2%
O=C(CCCNC(=O)c1cccn(Cc2ccc(F)c(F)c2)c1=O)Nc1ccc2c(c1)/C(=C/c1cnc[nH]1)C(=O)N2 [DF8, (Z)—N-(4-((3-((1H-imidazol-5-yl)methylene)-2-oxoindolin-5-yl)amino)-4-oxobutyl)-1-(3,4-difluorobenzyl)-2-oxo-1,2-dihydropyridine-3-carboxamide] | 0.611 | 0.245 | inhibition of AurA kinase (in words) (AurA): best effects; inhibition of PDK1 kinase (in words) (PDK1): best effects
O=C(CNC(=O)c1cccn(Cc2ccc(F)c(F)c2)c1=O)Nc1ccc2c(c1)/C(=C/c1cnc[nH]1)C(=O)N2 [IB35, (Z)—N-(2-((3-((1H-imidazol-5-yl)methylene)-2-oxoindolin-5-yl)amino)-2-oxoethyl)-1-(3,4-difluorobenzyl)-2-oxo-1,2-dihydro pyridine-3-carboxamide] | 0.289 |  | 
O=C(CCNC(=O)c1cccn(Cc2ccc(F)c(F)c2)c1=O)Nc1ccc2c(c1)/C(=C/c1cnc[nH]1)C(=O)N2 [DD21, (Z)—N-(3-((3-((1H-imidazol-5-yl)methylene)-2-oxoindolin-5-yl)amino)-3-oxopropyl)-1-(3,4-difluorobenzyl)-2-oxo-1,2-dihydropyridine-3-carboxamide] | 2.47 | 0.103 | 
O=C(CNC(=O)c1cc2cccnc2n(Cc2ccc(F)c(F)c2)c1=O)Nc1ccc2c(c1)/C(=C/c1cnc[nH]1)C(=O)N2 [SST201, (Z)—N-(2-((3-((1H-imidazol-5-yl)methylene)-2-oxoindolin-5-yl)amino)-2-oxoethyl)-1-(3,4-difluorobenzyl)-2-oxo-1,2-dihydro-1,8-naphthyridine-3-carboxamide] |  |  | inhibition at 10 µM (AurA): 43%; inhibition at 10 µM (PDK1; 10μM compound, Z'-LYTE assay): 35%
Cc1ccc(C(=O)N[C@@H](C(=O)Nc2ccc3c(c2)/C(=C/c2cnc[nH]2)C(=O)N3)c2ccccc2)c(=O)n1Cc1ccc(F)c(F)c1 [Compound V18, (R,Z)—N-(2-((3-((1H-imidazol-5-yl)methylene)-2-oxoindolin-5-yl)amino)-2-oxo-1-phenylethyl)-1-(3,4-difluorobenzyl)-6-methyl-2-oxo-1,2-dihydropyridine-3-carboxamide] | 0.0698 | 0.148 | 
Cc1ccc(C(=O)NCC(=O)Nc2ccc3c(c2)/C(=C/c2cnc[nH]2)C(=O)N3)c(=O)n1Cc1ccc(F)c(F)c1 [SST200, (Z)—N-(2-((3-((1H-imidazol-5-yl)methylene)-2-oxoindolin-5-yl)amino)-2-oxoethyl)-1-(3,4-difluorobenzyl)-6-methyl-2-oxo-1,2-dihydropyridine-3-carboxamide] | 0.193 | 0.103 | 
Cc1c(Br)cc(C(=O)N[C@@H](C(=O)Nc2ccc3c(c2)/C(=C/c2cnc[nH]2)C(=O)N3)c2ccccc2)c(=O)n1Cc1ccc(F)c(F)c1 [Compound V118, (R,Z)—N-(2-((3-((1H-imidazol-5-yl)methylene)-2-oxoindolin-5-yl)amino)-2-oxo-1-phenylethyl)-5-bromo-1-(3,4-difluorobenzyl)-6-methyl-2-oxo-1,2-dihydropyridine-3-carboxamide] | 0.118 | 0.475 | 
Cc1c(Br)cc(C(=O)NCC(=O)Nc2ccc3c(c2)/C(=C/c2cnc[nH]2)C(=O)N3)c(=O)n1Cc1ccc(F)c(F)c1 [Compound V123, (Z)—N-(2-((3-((1H-imidazol-5-yl)methylene)-2-oxoindolin-5-yl)amino)-2-oxoethyl)-5-bromo-1-(3,4-difluorobenzyl)-6-methyl-2-oxo-1,2-dihydropyridine-3-carboxamide] |  | 0.134 | inhibition at 10 µM (AurA): 52%
